Assay results reported in ChEMBL document CHEMBL1649263, “In vitro activity of a new quinoline derivative, ER-2, against clinical isolates of Mycoplasma pneumoniae and Mycoplasma hominis” (2009).
≈ marks a conversion by molar mass, not a printed value.

Experiments:
[1] = tested on: Mycoplasmoides pneumoniae; experiment: Antimicrobial activity against Mycoplasma pneumoniae by agar dilution method; type: functional
Metamycoplasma hominis = experiment: Antimicrobial activity against Mycoplasma hominis by agar dilution method; type: functional

MIC50 [1] | MIC90 [1] | MIC50 (Metamycoplasma hominis) | MIC90 (Metamycoplasma hominis) | SMILES | MIC [1] | MIC (Metamycoplasma hominis)
0.001 µg/mL (≈ 0.00257 µM) | 0.016 µg/mL (≈ 0.0411 µM) | 0.032 µg/mL (≈ 0.0823 µM) | 0.06 µg/mL (≈ 0.154 µM) | CN1C(=O)C2CC3C4Nc5ccc(Cl)cc5C(C)(C)C4CN3C2N(C)C1=O (stereo not given) | 0.001 µg/mL (≈ 0.00257 µM) | 
4 µg/mL (≈ 12.1 µM) | 4 µg/mL (≈ 12.1 µM) | 1 µg/mL (≈ 3.02 µM) | 1 µg/mL (≈ 3.02 µM) | O=C(O)c1cn(C2CC2)c2cc(N3CCNCC3)c(F)cc2c1=O [CIPROFLOXACIN] |  | 
 |  | 0.032 µg/mL (≈ 0.0753 µM) | 0.032 µg/mL (≈ 0.0753 µM) | CCC[C@@H]1C[C@@H](C(=O)N[C@@H]([C@H]2O[C@H](SC)[C@H](O)[C@@H](O)[C@H]2O)[C@H](C)Cl)N(C)C1 [CLINDAMYCIN] |  | 
0.25 µg/mL | 0.25 µg/mL | 2 µg/mL | 2 µg/mL | C[C@H]1c2cccc(O)c2C(=O)C2=C(O)[C@]3(O)C(=O)C(C(N)=O)=C(O)[C@@H](N(C)C)[C@@H]3[C@@H](O)[C@@H]21.O [DOXYCYCLINE] |  | 
0.125 µg/mL (≈ 0.333 µM) | 0.125 µg/mL (≈ 0.333 µM) | 0.125 µg/mL (≈ 0.333 µM) | 0.125 µg/mL (≈ 0.333 µM) | COc1c(N2CCNC(C)C2)c(F)cc2c(=O)c(C(=O)O)cn(C3CC3)c12 (stereo not given) [GATIFLOXACIN] |  | 
0.032 µg/mL (≈ 0.0822 µM) | 0.125 µg/mL (≈ 0.321 µM) |  |  | CO/N=C1\CN(c2nc3c(cc2F)c(=O)c(C(=O)O)cn3C2CC2)CC1CN (stereo not given) [GEMIFLOXACIN] |  | 

SMILES | MIC50 [1] | MIC90 [1] | MIC50 (Metamycoplasma hominis) | MIC90 (Metamycoplasma hominis) | MIC [1] | MIC (Metamycoplasma hominis)
CC[C@H]1OC(=O)[C@H](C)[C@@H](O[C@H]2C[C@@](C)(OC)[C@@H](O)[C@H](C)O2)[C@H](C)[C@@H](O[C@@H]2O[C@H](C)C[C@H](N(C)C)[C@H]2O)[C@](C)(O)C[C@@H](C)CN(C)[C@H](C)[C@@H](O)[C@]1(C)O [AZITHROMYCIN] | 0.001 µg/mL (≈ 0.00134 µM) | 0.016 µg/mL (≈ 0.0214 µM) |  |  | 0.001 µg/mL (≈ 0.00134 µM) | 
C[C@H]1COc2c(N3CCN(C)CC3)c(F)cc3c(=O)c(C(=O)O)cn1c23.C[C@H]1COc2c(N3CCN(C)CC3)c(F)cc3c(=O)c(C(=O)O)cn1c23.O [LEVOFLOXACIN] | 1 µg/mL | 1 µg/mL | 0.25 µg/mL | 0.5 µg/mL | 0.012 µg/mL | 0.1 µg/mL
COc1c(N2C[C@@H]3CCCN[C@@H]3C2)c(F)cc2c(=O)c(C(=O)O)cn(C3CC3)c12 [MOXIFLOXACIN] | 0.06 µg/mL (≈ 0.149 µM) | 0.12 µg/mL (≈ 0.299 µM) | 0.06 µg/mL (≈ 0.149 µM) | 0.06 µg/mL (≈ 0.149 µM) | 0.06 µg/mL (≈ 0.149 µM) | 0.063 µg/mL (≈ 0.157 µM)
CN(C)[C@@H]1C(O)=C(C(N)=O)C(=O)[C@@]2(O)C(O)=C3C(=O)c4c(O)cccc4[C@@](C)(O)[C@H]3C[C@@H]12 [TETRACYCLINE] | 1 µg/mL (≈ 2.25 µM) | 1 µg/mL (≈ 2.25 µM) | 8 µg/mL (≈ 18 µM) | 8 µg/mL (≈ 18 µM) |  | 
